Experimental data as given in patent US20070249635A1, “Fungicidal Mixtures Based on a Triazolopyrimidine Derivative and a Conazole” (BASF Aktiengesellschaft, priority 2003, published 2007).

Test system: Plasmopara viticola
Test: activity against peronospora of grapevines caused by Plasmopara viticola (protective spray on potted vines, cultivar Riesling)
Format: in vivo
Settings: individual active compound, untreated control 90% infection
Experimental: The active compounds, separately or jointly, were prepared as a stock solution comprising 0.25% by weight of active compound in acetone or DMSO. 1 % by weight of the emulsifier Uniperol® EL (wetting agent having emulsifying and dispersant action based on ethoxylated alkylphenols) was added to this solution, and the mixture was diluted with water to the desired concentration.
Use example—activity against peronospora of gravevines caused by Plasmopara viticola
Leaves of potted vines of the cultivar “Riesling” were sprayed to runoff point with an aqueous suspension having the concentration of active compound stated below. The next day, the undersides of the leaves were inoculated with an aqueous zoospore suspension of Plasmopara viticola. The grapevines were then initially placed in a water-vapor-saturated chamber at 24° C. for 48 hours and then in a greenhouse at 20-30° C. for 5 days. After this period of time, the plants were again placed in a humid chamber for 16 hours to promote sporangiophore eruption. The extent of the development of the disease on the undersides of the leaves was then determined visually.
The visually determined percentages of infected leaf areas were converted into efficacies as % of the untreated control:
The efficacy (E) is calculated as follows using Abbot's formula: E=(1−α/β)·100 • α corresponds to the fungicidal infection of the treated plants in % and • β corresponds to the fungicidal infection of the untreated (control) plants in %
An efficacy of 0 means that the infection level of the treated plants corresponds to that of the untreated control plants; an efficacy of 100 means that the treated plants were not infected.
The expected efficacies of combinations of active compounds were determined using Colby's formula (Colby, S.R. “Calculating synergistic and antagonistic responses of herbicide combinations”, Weeds, 15, 20-22, 1967) and compared with the observed efficacies. Colby's formula: E=x+y−x·y/100 • E expected efficacy, expressed in % of the untreated control, when using the mixture of the active compounds A and B at the concentrations a and b • x efficacy, expressed in % of the untreated control, when using the active compound A at the concentration a • y efficacy, expressed in % of the untreated control, when using the active compound B at the concentration b

Row | Structure (SMILES) | Efficacy in % of the untreated control (1 ppm in the spray liquor) [%] | Efficacy in % of the untreated control (4 ppm in the spray liquor) [%] | Efficacy in % of the untreated control (16 ppm in the spray liquor) [%]
1 | CC(C1CC1)C(O)(Cn1cncn1)c1ccc(Cl)cc1 (stereo not drawn) [II, 2-(4-chlorophenyl)-3-cyclopropyl-1-[1,2,4]triazol-1-ylbutan-2-ol] | 0 | 0 | 0
2 | CC1CCN(c2c(-c3c(F)cc(F)cc3F)c(Cl)nc3ncnn23)CC1 [I, 5-chloro-7-(4-methylpiperidin-1-yl)-6-(2,4,6-trifluorophenyl)-[1,2,4]triazolo[1,5-a]pyrimidine] | – | 56 | –
3 | CC1CCN(c2c(-c3c(F)cccc3Cl)c(Cl)nc3ncnn23)CC1 [A] | – | 11 | –
4 | C[C@H](Nc1c(-c2c(F)cc(F)cc2F)c(Cl)nc2ncnn12)C(F)(F)F [B] | – | 11 | –
